Bounds are passed on as bounds.

By IC50 is commonly meant the concentration that gives 50% inhibition.

For assay [1], the system named is pERK, HCT116 cells. In words: Phospho-ERK inhibition, AlphaLISA p-ERK 1/2, HCT-116. The settings on record: Table 3; for IC50: HCT116 cells (KRAS G13D), 1 h treatment; for HCT116 pERK (Ymin %): lowest % inhibition value of the pERK IC50 curve, above −20% = no paradoxical induction. Format: cell-based, human. The method, boiled down: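 Cells in RPMI-1640 with 5% FBS plated overnight, then treated 1 h with ten-point dilutions (10 μM to 0.33 nM, 0.5% DMSO). Lysate p-ERK1/2 (Thr202/Tyr204) read by AlphaLISA SureFire Ultra; % inhibition normalised to DMSO and 1 μM trametinib background, IC50 by four-parameter fit.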
(Alpha assays give light when donor and acceptor beads are brought close together.)

Assay [2] deals with T1, BRAF (Homo sapiens, UniProt P15056).
T1 construct: GST; purchased Millipore Sigma B4062-10UG
In words: BRAF kinase activity assay (ADP-Glo). The assay is classed as biochemical. The settings on record: Table 3; 10 μM ATP, kinase-dead MEK1 substrate. The method, boiled down: (§1)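 GST-tagged kinase (0.375 nM) with 75 nM kinase-dead MEK1 and 10 μM ATP in HEPES pH 7.5 buffer, 2 h at 30° C, nine concentrations 100–0.01 nM, 0.05% DMSO. ADP-Glo luminescence; % inhibition vs DMSO and substrate-only blanks, IC50 by four-parameter fit.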

In assay [3] the target is T2, CRAF (Homo sapiens, UniProt P04049).
T2 construct: fused on or other part: GST tag (N-terminal according to the vendor's product)
The assay can be described thus: CRAF kinase activity assay (ADP-Glo). Format: biochemical. The settings on record: Table 3; 10 μM ATP, kinase-dead MEK1 substrate. The method, boiled down:
as §1
In general terms: ADP-Glo turns the ADP formed in a reaction into a luminescent signal.

T2 sequence (P04049 whole entry Y340E/Y341E, form open, the tested form may be a part): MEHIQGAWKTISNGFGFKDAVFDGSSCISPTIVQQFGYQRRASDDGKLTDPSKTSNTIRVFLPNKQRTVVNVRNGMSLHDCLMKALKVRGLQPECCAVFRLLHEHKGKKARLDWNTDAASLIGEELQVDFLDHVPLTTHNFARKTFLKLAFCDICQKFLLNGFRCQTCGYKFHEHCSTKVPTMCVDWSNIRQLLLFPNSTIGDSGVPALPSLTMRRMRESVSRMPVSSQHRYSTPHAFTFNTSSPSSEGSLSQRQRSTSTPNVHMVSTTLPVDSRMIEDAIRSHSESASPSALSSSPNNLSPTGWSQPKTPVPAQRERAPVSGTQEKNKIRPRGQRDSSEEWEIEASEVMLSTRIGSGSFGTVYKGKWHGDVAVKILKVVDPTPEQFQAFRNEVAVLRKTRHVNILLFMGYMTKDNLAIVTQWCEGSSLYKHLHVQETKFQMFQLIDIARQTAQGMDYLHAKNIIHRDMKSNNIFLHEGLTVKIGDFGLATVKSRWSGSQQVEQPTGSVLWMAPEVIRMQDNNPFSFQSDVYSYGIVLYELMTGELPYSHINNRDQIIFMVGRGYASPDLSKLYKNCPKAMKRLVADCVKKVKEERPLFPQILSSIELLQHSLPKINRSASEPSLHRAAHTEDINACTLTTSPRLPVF
T1 sequence (P15056 whole entry): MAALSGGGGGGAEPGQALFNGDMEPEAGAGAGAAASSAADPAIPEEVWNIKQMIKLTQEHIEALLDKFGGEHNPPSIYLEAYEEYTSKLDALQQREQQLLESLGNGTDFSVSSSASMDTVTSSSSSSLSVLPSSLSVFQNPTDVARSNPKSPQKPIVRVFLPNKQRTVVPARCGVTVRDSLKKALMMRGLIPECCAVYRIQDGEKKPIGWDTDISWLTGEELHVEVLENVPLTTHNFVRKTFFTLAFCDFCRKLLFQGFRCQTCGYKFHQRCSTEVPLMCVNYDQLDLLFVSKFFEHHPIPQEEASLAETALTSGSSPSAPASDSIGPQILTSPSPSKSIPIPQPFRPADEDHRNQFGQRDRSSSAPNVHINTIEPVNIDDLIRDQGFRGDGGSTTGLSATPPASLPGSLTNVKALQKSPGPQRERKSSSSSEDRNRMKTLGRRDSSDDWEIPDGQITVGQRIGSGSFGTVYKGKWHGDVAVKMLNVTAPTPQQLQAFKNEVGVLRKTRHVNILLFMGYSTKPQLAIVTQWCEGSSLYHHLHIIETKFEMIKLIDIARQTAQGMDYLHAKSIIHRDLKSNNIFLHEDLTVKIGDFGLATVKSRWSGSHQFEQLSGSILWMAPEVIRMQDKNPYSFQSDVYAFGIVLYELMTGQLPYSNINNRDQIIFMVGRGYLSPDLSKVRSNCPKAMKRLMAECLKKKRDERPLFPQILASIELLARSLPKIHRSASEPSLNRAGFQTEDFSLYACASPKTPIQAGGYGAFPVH

With `COCCN(C)S(=O)(=O)c1cn(-c2nc3c(Nc4c(F)ccc(NS(=O)(=O)c5cccc(Cl)c5Cl)c4F)ncnc3s2)c2ccccc12` [Example 48], the values for the IC50 in assay [1], in assay [2] and in assay [3] were 0.5 to 1 µM, 0.001 to 0.01 µM and 0.01 to 0.05 µM, respectively. In addition, the “HCT116 pERK (Ymin %)” value in assay [1] came to 0%.
On the same counts, the results for `COCCN(C)C(=O)c1cn(-c2nc3c(Nc4c(F)ccc(NS(=O)(=O)c5cccc(F)c5C)c4F)ncnc3s2)c2ccccc12` [Example 43] are less than 0.5 µM, less than 0.001 µM, less than 0.01 µM and 9%.
As for `Cc1c(F)cccc1S(=O)(=O)Nc1ccc(F)c(Nc2ncnc3sc(-n4cnc5c(C(C)(C)C#N)cccc54)nc23)c1F` [Example 112], the IC50 in assay [1] is less than 0.5 µM; in assay [2], 0.001 to 0.01 µM; in assay [3], less than 0.01 µM. In addition, the “HCT116 pERK (Ymin %)” value in assay [1] was found to be 7%.
For `Cc1c(F)cccc1S(=O)(=O)Nc1ccc(F)c(Nc2ncnc3sc(-n4cc(C(=O)N(C)Cc5cccnc5)c5ccccc54)nc23)c1F` [Example 31], the concentration for half-maximal inhibition (IC50) in assay [1] is 0.5 to 1 µM; in assay [2] it was 0.001 to 0.01 µM; in assay [3] it was less than 0.01 µM. The “HCT116 pERK (Ymin %)” value in assay [1] stood at 7%.
On the same counts, the results for `O=C(c1cn(-c2nc3c(Nc4c(F)ccc(NS(=O)(=O)c5cccc(Cl)c5Cl)c4F)ncnc3s2)c2ccc(Cl)cc12)N1C2CCC1COC2` [Example 81] are 0.5 to 1 µM, 0.001 to 0.01 µM, 0.01 to 0.05 µM and −8%.
On the same counts, the results for `O=S(=O)(Nc1ccc(F)c(Nc2ncnc3sc(-n4cnc5c(N6CCC[C@H](O)C6)cccc54)nc23)c1F)c1cccc(Cl)c1Cl` [Example 147] are less than 0.5 µM, less than 0.001 µM, 0.01 to 0.05 µM and −4%.
Take `O=S(=O)(Nc1ccc(F)c(Nc2ncnc3sc(-n4cnc5c(N6CCC7(CCCO7)CC6)cccc54)nc23)c1F)c1cccc(Cl)c1Cl` [Example 136]: the IC50 was less than 0.5 µM in assay [1], greater than 0.01 µM in assay [2] and 0.01 to 0.05 µM in assay [3]. Further, the “HCT116 pERK (Ymin %)” value in assay [1] is on record as −17%.
`CN(Cc1ccncc1)C(=O)c1cn(-c2nc3c(Nc4c(F)ccc(NS(=O)(=O)c5cccc(Cl)c5Cl)c4F)ncnc3s2)c2ccccc12` [Example 45]: the IC50 in assay [1] is less than 0.5 µM; in assay [2], less than 0.001 µM; in assay [3], less than 0.01 µM. Also, the “HCT116 pERK (Ymin %)” value in assay [1] was −4%.
As for `N#Cc1cccc2c1ncn2-c1nc2c(Nc3c(F)ccc(NS(=O)(=O)c4cccc(Cl)c4Cl)c3F)ncnc2s1` [Example 120], the IC50 in assay [1] (Homo sapiens, HCT-116) is less than 0.5 µM; in assay [2], 0.001 to 0.01 µM; in assay [3], less than 0.01 µM.
As for `COC[C@@H]1CCCN1c1cccc2c1ncn2-c1nc2c(Nc3c(F)ccc(NS(=O)(=O)c4cccc(Cl)c4Cl)c3F)ncnc2s1` [Example 132], the figures for the IC50 in assay [1], in assay [2] and in assay [3] were 1 to 10 µM, greater than 0.01 µM and greater than 0.05 µM, respectively. In assay [1], the “HCT116 pERK (Ymin %)” value is −11%.
On the same counts, the results for `Nc1ncccc1-c1cccc2c1ncn2-c1nc2c(Nc3c(F)ccc(NS(=O)(=O)c4cccc(Cl)c4Cl)c3F)ncnc2s1` [Example 134] are less than 0.5 µM, 0.001 to 0.01 µM, 0.01 to 0.05 µM and −5%.
Turning to `O=S(=O)(Nc1ccc(F)c(Nc2ncnc3sc(-n4cnc5ccccc54)nc23)c1F)c1cccc(Cl)c1Cl` [Example 4, N-[3-[[2-(benzimidazol-1-yl)thiazolo[5,4-d]pyrimidin-7-yl]amino]-2,4-difluoro-phenyl]-2,3-dichloro-benzenesulfonamide], the IC50 in assay [1] (Homo sapiens, HCT-116) was 0.5 to 1 µM; in assay [2], 0.001 to 0.01 µM; in assay [3], less than 0.01 µM.
For the compound `O=S(=O)(Nc1ccc(F)c(Nc2ncnc3sc(-n4cnc5c(C6(CO)CC6)cccc54)nc23)c1F)c1cccc(Cl)c1Cl` [Example 143], the IC50 is less than 0.5 µM in assay [1], 0.001 to 0.01 µM in assay [2] and less than 0.01 µM in assay [3]. The “HCT116 pERK (Ymin %)” value in assay [1] was −8%.
Consider `Cc1c(F)cccc1S(=O)(=O)Nc1ccc(F)c(Nc2ncnc3sc(-n4cnc5c(F)cccc54)nc23)c1F` [Example 35], for which the figures for the IC50 in assay [1], in assay [2] and in assay [3] were less than 0.5 µM, 0.001 to 0.01 µM and less than 0.01 µM, respectively. For the same compound, the “HCT116 pERK (Ymin %)” value in assay [1] is reported as −8%.
Regarding `O=C(c1cn(-c2nc3c(Nc4c(F)ccc(NS(=O)(=O)c5cccc(Cl)c5Cl)c4F)ncnc3s2)c2ccccc12)N1CCC(O)C1` (centres unmarked) [Example 53], the IC50 in assay [1] is 0.5 to 1 µM; in assay [2], less than 0.001 µM; in assay [3], less than 0.01 µM. Besides, the “HCT116 pERK (Ymin %)” value in assay [1] is recorded as −9%.
On the same counts, the results for `O=C(c1cn(-c2nc3c(Nc4c(F)ccc(NS(=O)(=O)c5cccc(Cl)c5Cl)c4F)ncnc3s2)c2ccccc12)N1CC(O)C1` [Example 59] are 0.5 to 1 µM, less than 0.001 µM, less than 0.01 µM and 4%.
On to `Cc1c(F)cccc1S(=O)(=O)Nc1ccc(F)c(Nc2ncnc3sc(-c4cncs4)nc23)c1F` [Example 154, N-[2,4-difluoro-3-[(2-thiazol-5-ylthiazolo[5,4-d]pyrimidin-7-yl)amino]phenyl]-3-fluoro-2-methyl-benzenesulfonamide], for which the IC50 was 1 to 10 µM in assay [1] (Homo sapiens, HCT-116); greater than 0.01 µM in assay [2]; greater than 0.05 µM in assay [3].
Consider `COCCC(=O)c1cn(-c2nc3c(Nc4c(F)ccc(NS(=O)(=O)c5cccc(Cl)c5Cl)c4F)ncnc3s2)c2ccccc12` [Example 106], for which the IC50 is 0.5 to 1 µM in assay [1] (Homo sapiens, HCT-116); greater than 0.01 µM in assay [2]; 0.01 to 0.05 µM in assay [3].
With `COc1ccc(S(=O)(=O)Nc2ccc(F)c(Nc3ncnc4sc(-n5cnc6c(N)cccc65)nc34)c2F)c(C)c1Cl` [Example 13], the values for the 50% inhibitory concentration (IC50) in assay [1], in assay [2] and in assay [3] were 1 to 10 µM, 0.001 to 0.01 µM and 0.01 to 0.05 µM, respectively. Moreover, in assay [1], the “HCT116 pERK (Ymin %)” value is on record as −14%.
Take `Cc1c(F)cccc1S(=O)(=O)Nc1ccc(F)c(Nc2ncnc3sc(-n4nc(C(=O)N(C)CCN(C)C)c5ccccc54)nc23)c1F` [Example 27]: the IC50 in assay [1] fell in the range of 0.5 to 1 µM; in assay [2], 0.001 to 0.01 µM; in assay [3], 0.01 to 0.05 µM. For the same compound, in assay [1], the “HCT116 pERK (Ymin %)” value was −3%.
Turning to `O=S(=O)(Nc1ccc(F)c(Nc2ncnc3sc(-n4cnc5c(C(F)(F)F)cccc54)nc23)c1F)c1cccc(Cl)c1Cl` [Example 17], the IC50 lay in the range of 1 to 10 µM in assay [1] (Homo sapiens, HCT-116); 0.001 to 0.01 µM in assay [2]; 0.01 to 0.05 µM in assay [3].
With `O=S(=O)(Nc1ccc(F)c(Nc2ncnc3sc(-n4cnc5c(F)cc(OCCO)cc54)nc23)c1F)c1cccc(Cl)c1Cl` [Example 100], the IC50 in assay [1] (Homo sapiens, HCT-116) was less than 0.5 µM; in assay [2] it was 0.001 to 0.01 µM; in assay [3] it was less than 0.01 µM.
In the case of `CN(Cc1ccncc1)S(=O)(=O)c1cn(-c2nc3c(Nc4c(F)ccc(NS(=O)(=O)c5cccc(Cl)c5Cl)c4F)ncnc3s2)c2ccccc12` [Example 11], the IC50 in assay [1] was 1 to 10 µM; in assay [2], 0.001 to 0.01 µM; in assay [3] it was less than 0.01 µM. Moreover, the “HCT116 pERK (Ymin %)” value in assay [1] was 4%.
Consider `Cc1cc2ncn(-c3nc4c(Nc5c(F)ccc(NS(=O)(=O)c6cccc(Cl)c6Cl)c5F)ncnc4s3)c2cc1C` [Example 20], for which the results for the half-inhibitory concentration (IC50) in assay [1], in assay [2] and in assay [3] were less than 0.5 µM, 0.001 to 0.01 µM and 0.01 to 0.05 µM, respectively. The “HCT116 pERK (Ymin %)” value in assay [1] is −12%.
As to `O=S(=O)(Nc1ccc(F)c(Nc2ncnc3sc(-n4nnc5ccccc54)nc23)c1F)c1cccc(Cl)c1Cl` [Example 21], the IC50 is 1 to 10 µM in assay [1], greater than 0.01 µM in assay [2] and 0.01 to 0.05 µM in assay [3]. Moreover, in assay [1], the “HCT116 pERK (Ymin %)” value is −4%.
Consider `O=S(=O)(Nc1ccc(F)c(Nc2ncnc3sc(-n4cnc5c(F)cc(F)cc54)nc23)c1F)c1cccc(Cl)c1Cl` [Example 71], for which the IC50 in assay [1] (Homo sapiens, HCT-116) is less than 0.5 µM; in assay [2], 0.001 to 0.01 µM; in assay [3] it was less than 0.01 µM.
For `COc1ccc(S(=O)(=O)Nc2ccc(F)c(Nc3ncnc4sc(-n5cnc6c(C(C)(C)C#N)cccc65)nc34)c2F)c(C)c1Cl` [Example 117], the IC50 in assay [1] is 0.5 to 1 µM; in assay [2] it was greater than 0.01 µM; in assay [3] it was 0.01 to 0.05 µM. For the same compound, the “HCT116 pERK (Ymin %)” value in assay [1] is −15%.
Take `O=C1CCCC12CCN(c1cccc3c1ncn3-c1nc3c(Nc4c(F)ccc(NS(=O)(=O)c5cccc(Cl)c5Cl)c4F)ncnc3s1)CC2` [Example 151]: the values for the IC50 in assay [1], in assay [2] and in assay [3] were less than 0.5 µM, 0.001 to 0.01 µM and 0.01 to 0.05 µM, respectively. For the same compound, in assay [1], the “HCT116 pERK (Ymin %)” value was −2%.
On to `CC1(O)CN(C(=O)c2cn(-c3nc4c(Nc5c(F)ccc(NS(=O)(=O)c6cccc(Cl)c6Cl)c5F)ncnc4s3)c3ccccc23)C1` [Example 94], for which the IC50 is less than 0.5 µM in assay [1], 0.001 to 0.01 µM in assay [2] and less than 0.01 µM in assay [3]. For the same compound, the “HCT116 pERK (Ymin %)” value in assay [1] is recorded as −10%.
Take `O=C(c1cn(-c2nc3c(Nc4c(F)ccc(NS(=O)(=O)c5cccc(Cl)c5Cl)c4F)ncnc3s2)c2ccccc12)N1CCC(O)(C(F)(F)F)CC1` [Example 97]: the values for the IC50 in assay [1], in assay [2] and in assay [3] were less than 0.5 µM, greater than 0.01 µM and 0.01 to 0.05 µM, respectively. In addition, the “HCT116 pERK (Ymin %)” value in assay [1] is −10%.

These data come from patent publication US20260137697A1, “THIAZOLO[5,4-D]PYRIMIDINE COMPOUNDS, COMPOSITIONS COMPRISING THEM AND USES THEREOF” (University de Montreal, priority 2022, published 2026).
